# Test results as given in patent US20050143336A1 (priority 2003, published 2005).
# “Also recorded” adds a separate entry of the source.
# Experiments:
# [1] = test system: FUS1 protein expression in the lungs; conditions: naproxen 15 mg/kg orally 2 hour prior to i.v. DOTAP:Chol-FUS1 complex vs complex alone
# Description: In vivo treatment of immunocompetent animals by intravenous injection of DOTAP:Cholesterol-FUS1 complex. Female C3H mice were divided into 3 groups (n=12/group). […] Lung tissues were later homogenized, and total protein lysates prepared. Protein concentration in the lysate were determined by the BCA method and analyzed for FUS1 expression by western blot analysis. FUS1 protein was detected using a anti-FUS1 antibody. Untreated animals served as controls.
# [2] = test system: proinflammatory cytokines (TNF, IL-1, IL-6, IFN-γ); type: in vivo, C3H mice
# Description: In vivo treatment of immunocompetent animals by intravenous injection of DOTAP:Cholesterol-FUS1 complex. Female C3H mice were divided into 2 groups (n=15/group). […] Complexes were injected intravenously via the tail vein using a total volume of 200 μl. […] Blood from animals in all groups were collected at 2, 4, 6, and 15 h after injection of liposome-DNA complex, and analyzed for proinflammatory cytokines (TNF, IL-1, IL-6, IFN-γ) by ELISA (R&D Systems).
# luciferase expression = assay: Luciferase transgene expression in cells transfected with luc-nanoparticles; type: cell-based, Human; conditions: naproxen prior to luc-nanoparticles; 2 h, 4 h, 15 h
# Description: To determine the effect of inhibitors on transgene expression, cells were transfected with a marker gene, luciferase (luc), complexed with DOTAP:Chol. nanoparticles (luc-nanopartilces). All other experimental conditions were the same as described above. Luciferase expression was determined using the luciferase assay kit (Promega, Madison, Wis.) as previously described (Ramesh et al., 2001b). Luciferase expression was expressed as relative light units per mg of protein (RLU/mg). Assays were performed in triplicates. Experiments were performed two times and the results represented as the average of two separate experiments.
# [3] = test system: NFκB and STAT3 DNA binding; assay: Electrophoretic mobility shift assay of lung nuclear extracts for NFκB and STAT3; type: in vivo, C3H mice; conditions: in the presence of naproxen
# Description: Electrophoretic mobility shift assay. […] Santa Cruz Biotechnology, Santa Cruz, Calif.) and NF-κB consensus oligonucleotide […] These probes were end-labelled with [γ-^32P]ATP(3000 Ci/mmol at 10 mCi/ml; Amersham Biosciences, Sunnyvale, Calif.). DNA binding reactions were performed at room temperature in a 25-μl reaction mixture containing 6-μl of nuclear extract and 5 μl of 5× binding buffer (20% (w/v) Ficoll, 50 mM HEPES (pH 7.9), 5 mM EDTA, 5 mM DTT). […] Samples were electrophoresed through 5.5% polyacrylamide gels in 0.5×TBE at 160 V for 3 h, dried under vacuum, and exposed to X-ray film after overnight expose with hyperfilm at -80° C. The gel was then dried and subjected to autoradiography. […] The minced tissue was homogenized using a Dounce homogenizer and centrifuged at 14,000 rpm at 4° C. for 10 min. […] The supernatant (nuclear extract) was collected and stored at -80° C. until use. The protein concentrationm was measured by the method of Bradford with BSA as the standard. […] Briefly, Double-stranded oligonucleotides consensus NFκB (Promega) were end-labelled with [γ-^32P]-ATP using T4 polynucleotide kinase. […] The bands were visualized by autoradiography.
# [4] = test system: p38, JNK, ERK, pATF2, pcJun, STAT3, COX-2; assay: Western blot of signaling molecules in lung, liver and spleen after FUS1-nanoparticle with or without naproxen; type: in vivo, C3H mice
# Description: Western blot analysis for the Signaling molecules. At the time of western blot analysis, organs were slowly thawed on ice. […] Whole Cell lysates were collected in an Eppendorf tube and sonicated for 30 seconds and heated in a water bath at 95° C. for 5 mins and then centrifuged at 13000 rpm for 10 min at 4° C. The supernatants were mixed with 5% 2-mercaptoethanol and stored at −80° C. Protein concentrations was determined by BCA protein assay. Aliquots of cell extracts containing 50 μg of total protein were resolved in 10% SDS-PAGE and transferred from gel to nitrocellulose membrane (Hybond-ECL; Amersham Pharmacia Biotech, UK) and then blocked for 1 h at room temperature (5% nonfat milk powder and 0.1% Tween 20 in TBS or PBS). Then the membranes were incubated with the primary antibodies, phosphospcific p38 (1:1000), phosphospecific pJNK (1:1000), phosphospecific p44/42 (1:1000), phospho ATF2 (1:1000), phospho cJun (1:1000), phospho STAT3 (1:1000) and COX-2 (1:1000). The membranes were then incubated with HRP-conjugated rabbit IgG Ab (Amersham) and the bound antibodies were visualized by enhanced chemiluminescence (Amersham; Piscataway, N.J.). The expression of α-actin was used as the loading control.
# [5] = test system: p38MAPK, pJNK, p44/42MAPK, pATF-2, pc-Jun, COX-2 in MRC-9 fibroblast cells; assay: Inflammation-associated signaling molecules in MRC-9 cells transfected with FUS1-nanoparticles (western blot); type: cell-based, Human; conditions: naproxen 0.5 mM prior to FUS1-nanoparticles
# Description: In vitro experiments. To determine the effect of FUS1-nanoparticles on the activation of signaling molecules associated with inflammation, MRC-9 fibroblast cells were seeded in six-well plates (5×10^5 cells/well) and incubated overnight at 37° C. and 5% CO2. […] Two-three hours after treatment, cells were transfected with FUS1-nanoparticles (2.5 μg DNA) in 0.2% serum medium. Cells were harvested at different time-points (2 h, 4 h, 15 h) after transfection, washed, and cell lysates prepared as previously described (Ramesh et al., 2001a). Untransfected cells treated with PBS served as control in these experiments. Cell lysates were subjected to western blotting analysis and probed with various antibodies as previously described (Ramesh et al., 2001b; Ito et al., 2003). In all the experiments, β-actin was detected using anti-β-actin antibody (Sigma Chemicals, St. Louis, Mo.) as a measure of internal loading control.
# [6] = 15 mg/kg orally
# Description: At indicated times after injection, blood and organ was collected at different time points. TNF-α, IL-6, IL-1a and IFN-γ levels in serum (C) and TNF-α, IL-6 (D) in organs were determined using specific immunoassay kit. Data represent means±SD.
# Animals were euthanized at 2, 4, 6, and 15 hours after treatment, and blood was collected. Blood samples were stored at −80° C. until all samples were collected. They were then submitted to the Drug Analysis Core Facility at M.D. Anderson Cancer Center.
smiles,measurement,setting,value
"COc1ccc2cc([C@H](C)C(=O)O)ccc2c1 [Naproxen, naproxen]",FUS1 protein expression in the lungs,[1],No significant differences
same,reduction in all of the cytokine levels,"[2]; naproxen 15 mg/kg 2 hour before DOTAP:Chol-FUS1 complex (100 μg DNA) i.v., serum",50%
same,"proinflammatory cytokine production, effect of naproxen",[2]; naproxen 15 mg/kg before complex,significant suppression of proinflammatory cytokine production
same,"luciferase activity (RLU/mg protein), naproxen treated vs untreated",luciferase expression,greatly increased; also recorded: slight increase in luciferase activity
same,activation of NFκB and STAT3 in lung,[3],suppressed
same,"phosphorylation of JNK, ATF-2, cJun, STAT3 ser727 and Tyr 705 in liver and spleen",[4]; naproxen 15 mg/kg,inhibited
same,p38 phosphorylation in lung,"[4]; naproxen 15 mg/kg 2 h before FUS1-nanoparticle, all time points",complete inhibition
same,JNK and ERK phosphorylation in lung,"[4]; naproxen 15 mg/kg, 2 and 4 h",partial inhibition
same,COX-2 induced by FUS1-nanoparticle,"[4]; naproxen 15 mg/kg, 2 h",inhibition
same,"phosphorylation of ATF-2, cJUN and STAT3 (Ser 727, Tyr705) in lung","[4]; naproxen 15 mg/kg, 4 h and 15 h",inhibited
same,"expression of downstream substrates pATF-2, pc-Jun and COX-2",[5],decreased expression
same,"expression of p38MAPK, pJNK and p44/42MAPK",[5],significant inhibition
same,maximum levels of naproxen in the blood,[6],3.5 μg/200 μl of blood
same,time by which naproxen reached baseline levels,[6],≤ 15 h
